Source: US20230134228A1, “SYNERGISTIC HERBAL COMPOSITION AS A BROAD-SPECTRUM PROPHYLACTIC MAJOR AND METHOD TO PREPARE THE SAME” (priority 2020, published 2023)

Columns and labels:
Assay type in all cases: biochemical
[1] = Hydroxyl radical scavenging activity; conditions: for TBARS Inhibition (%): Table 6 (hydroxyl radical scavenging)
[2] = Lipid peroxidation (TBARS) inhibition assay; conditions: for TBARS Inhibition (%): Table 7
[3] = Anti-oxidant assay (DPPH radical scavenging activity)

Compound: O=C1O[C@H]([C@@H](O)CO)C(O)=C1O [Ascorbic Acid, ascorbic acid]
- Inhibitory concentration [IC50], hydroxyl radical [1]: 30.83 µg/mL
- TBARS Inhibition (%) ([1]; Conc. 6.25 μl/ml): 35.27%
- TBARS Inhibition (%) ([1]; Conc. 12.5 μl/ml): 42.80%
- TBARS Inhibition (%) ([1]; Conc. 25 μl/ml): 53.76%
- TBARS Inhibition (%) ([1]; Conc. 50 μl/ml): 64.72%
- TBARS Inhibition (%) ([1]; Conc. 100 μl/ml): 64.43%
- TBARS Inhibition (%) ([1]; Conc. 200 μl/ml): 76.71%
- Inhibitory concentration [IC50], lipid peroxidation (TBARS) [2]: 20.32 µg/mL
- TBARS Inhibition (%) ([2]; Conc. 6.25 μl/ml): 36.0%
- TBARS Inhibition (%) ([2]; Conc. 12.5 μl/ml): 47.69%
- TBARS Inhibition (%) ([2]; Conc. 25 μl/ml): 54.76%
- TBARS Inhibition (%) ([2]; Conc. 50 μl/ml): 62.15%
- TBARS Inhibition (%) ([2]; Conc. 100 μl/ml): 68.92%
- TBARS Inhibition (%) ([2]; Conc. 200 μl/ml): 72.61%
- DPPH radical inhibition (%) ([3]; Conc. 3.125 μl/ml): 29.93%
- DPPH radical inhibition (%) ([3]; Conc. 6.25 μl/ml): 52.42%
- DPPH radical inhibition (%) ([3]; Conc. 12.5 μl/ml): 71.28%
- DPPH radical inhibition (%) ([3]; Conc. 25 μl/ml): 87.88%
- DPPH radical inhibition (%) ([3]; Conc. 50 μl/ml): 92.05%
- DPPH radical inhibition (%) ([3]; Conc. 100 μl/ml): 95.01%
- DPPH radical inhibition (%) ([3]; Conc. 200 μl/ml): 29.93%
- Inhibitory concentration [IC50], DPPH ([3]; from graph of % inhibition vs concentration): 17.30 µg/mL
